Laboratory results as given in US6211439A, “Herbicide resistance in plants” (MGI Pharma, Inc, priority 1995, dated 2001).
Converted amounts (≈) assume the structure as drawn. Where two headings read alike, the source gives them in different places.

Columns and labels:
[1] = tested on: AHAS activity of line XA17 tissue; experiment: AHAS activity assay, line XA17 tissue; assay type: biochemical, maize; conditions: for IC50: AHAS activity of line XA17 tissue, read-out: concentration inhibiting AHAS activity 50%
Description: (§1) Assays were conducted as a modification of the procedure of Smith et al. (1979, Molec. Gen. Genet. 169: 299-314). Plant cell culture material was ground with sand in a cold mortar and pestle in an equal quantity (w/v) of cell disruption media containing 0.05 M potassium phosphate (pH 7.0), 0.1 mM MgSO4, and 0.5 mM dithiothreitol. The preparation was centrifuged at 11,000×g for 20 minutes and the supernatant assayed for AHAS activity. Assays were conducted in 1 ml volumes containing 0.05 M potassium phosphate (pH 8.0), 40 mM pyruvate, 5 mM MgCl2, 0.1 mM thiamine pyrophosphate, 0.2 ml cell extract, and various concentrations of the herbicide of interest. The reaction mixtures were incubated at 30° C. for 75 minutes and the reaction terminated with the addition of 0.1 ml of 50% (v/v) H2 SO4. Following further incubation at 40° C. for 20 minutes, the acetoin formed from acetolactate by acidification was quantitated using the method of Westerfield (1945, J. Biol. Chem. 161: 495). To 0.2 ml of reaction mixture, 0.8 ml of water, 0.5 ml of 0.5% (w/v) creatine, and 0.5 ml of 5% (w/v) naphthol in 10% (w/v) NaOH was added. After mixing, solutions were incubated at room temperature for one hour. The development of pink color was quantitated by measuring light absorbance at 530 nm.
Assays were conducted to determine if acetohydroxyacid synthase extracted from line XA17 tissue was altered with respect to herbicide sensitivity. Such a change would signify that an alteration of this enzyme conferred the herbicide resistance. Assays were conducted as described supra.

[2] = tested on: maize cell suspension cultures; experiment: Reversal of herbicide growth inhibition by leucine, valine and isoleucine; assay type: cell-based; conditions: 1 mM each of leucine, isoleucine, and valine; cell suspension cultures
Description: Growth inhibition studies were carried out in 125 ml flasks containing 30 ml of test media. 997 was filter sterilized and added to cooling media following autoclaving. Test media were innoculated with cells to give a settled cell volume (15 minutes without centrifugation) of 0.2 ml per 10 ml of suspension. After either six or seven days growth settled cell volumes were again quantitated.
Cells were tested to determine whether the herbicide induced inhibition of growth was the result of the decreased availability of the three branched chain amino acids. Cells were exposed to toxic levels of 997 (1×10^-6 M) in media either supplemented with 1 mM concentrations of leucine, valine, and isoleucine or with no supplementation. Culture growth rates in the absence of amino acid supplementation and in the presence of 1×10^-6 M 997 were reduced to 16% that of herbicide free cultures.
Experiments were conducted to determine the optimum supplementation levels of each of the three amino acids to obtain maximum herbicide protection and for gaining insight into the site of action of the compound.

[3] = tested on: Callus tissue from line QJ22; experiment: Callus growth inhibition, line QJ22; assay type: cell-based, maize; conditions: line QJ22 vs control tissue; based on herbicide amount giving 50% reduction in growth rate
Description: (§2) Callus tissue from line QJ22 was tested also with the compound 567. The numbers represent the fold increase in herbicide concentration that can be tolerated by each of the cell lines as compared to control tissue. The values were calculated based on the amount of herbicide that gave a 50% reduction in growth rate.

line XA17 tissue = experiment: Callus growth inhibition, resistant line XA17; assay type: cell-based, maize; conditions: Zea mays, 336 h, read-out: level giving a 50% growth inhibition
Description: (§3) Therefore the effects of 214 were determined on callus growth. Quantities of tissue averaging 90 mg in size were transferred to nutrient agar maintenance media containing concentrations of 214 ranging from 0.003 to 3 mg per liter. Eight tissue pieces were placed on each plate with three plates per herbicide concentration. After 14 days growth, the tissue was weighed again.
Initially, the maximum level of 214 in which line XA17 would grow stably was determined. Stock tissue which had been maintained in the presence of 0.1 mg per liter 214 was transferred to media containing 214 levels ranging up to 30 mg per liter. Tissue was maintained for several subculture intervals and the growth rate evaluated.

QJ22 seedlings = experiment: Seedling assay, QJ22 seedlings homozygous for the resistance trait; assay type: in vivo, maize; conditions: seedling assays
Description: Plants were regenerated from cell line QJ22 and seed obtained as described previously for XA17, supra. […] Seeds which are uniformly homozygous for the resistance trait were obtained as described for XA17, supra.

[4] = tested on: unselected maize callus tissue; experiment: Callus culture growth inhibition, unselected tissue; assay type: cell-based; conditions: Zea mays, 336 h, read-out: level giving a 50% growth inhibition
Description: as §3

[5] = tested on: Callus tissue from line UV18; experiment: Callus growth inhibition, line UV18; assay type: cell-based, maize; conditions: line UV18 vs control tissue; based on herbicide amount giving 50% reduction in growth rate
Description: The UV18 cell line was first observed after 25 weeks of selection comprising 9 subculture intervals. The tissue in the selection procedure had been exposed to 0.1 mg per liter 214 for four subculture intervals followed by exposure to 0.3 mg per liter 214 for four subculture intervals. UV18 was identified during the ninth subculture as a rapidly growing sector of tissue with good morphology.
as §2

[6] = tested on: acetohydroxyacid synthase (AHAS); experiment: AHAS activity assay, extract of maize cell cultures / control tissue; assay type: biochemical
Description: as §1, with “Plant” for “Assays were conducted as a modification of the procedure of Smith et al. (1979, Molec. Gen. Genet. 169: 299-314). Plant”, “Following further incubation at 40° C. for 20 minutes, the acetoin formed from acetolactate by acidification was quantitated using the method of Westerfield (1945, J. Biol. Chem. 161: 495).” left out, “hour.” for “hour. The development of pink color was quantitated by measuring light absorbance at 530 nm.”

control seedlings = experiment: Seedling assay, control (herbicide sensitive) seedlings; assay type: in vivo, maize; conditions: Zea mays, read-out: concentration inhibiting shoot growth 50%
Description: Seeds to be used as controls in the heritability assay were obtained from regenerated plants from an herbicide sensitive cell line of the same genetic background as line XA17. These regenerated plants were crossed with pollen obtained from a herbicide sensitive inbred B73 plant grown from seed. Seeds were harvested approximately forty days after pollination.
(§4) Twenty control seeds and ten XA17 seeds were surface sterilized with 2.6% sodium hypochlorite for twenty minutes and then washed with sterile distilled water. The seed was imbibed overnight in sterile water containing a small quantity of the fungicide, captan (N-trichloromethylthio-4-cyclohexene-1,2-dicarboximide). The mature embryos were then excised from the seed and plated scutellum side down on solid MS media without 2,4-D. Ten control seeds were plated on media containing no 214 and ten were plated in the presence of 6×10^-8M 214 which had been incorporated into the medium after autoclaving but before gelling. All ten XA17 seeds were plated in the presence of 6×10^-8 M 214. Seedlings were evaluated seven days after plating.
(§5) XA17 seeds homozygous for the resistance trait were obtained as described in Section 6.4.6. […] Assays were conducted as described in Section 6.4.5.

[7] = tested on: XA17 seedlings homozygous for the herbicide resistance trait; experiment: Seedling assay, XA17 seedlings homozygous for the resistance trait; assay type: in vivo, maize; conditions: for resistance of XA17 homozygous seedlings: vs control seedlings
Description: as §4, §5

Tomato callus lines = conditions: callus cultures initiated from regenerated plants (Thomas and Pratt, 1983); cited from earlier work

Compound: CCc1cnc(C2=NC(=O)C(C)(C(C)C)N2)c(C(=O)O)c1 (stereo not drawn) [compound 499, 5-ethyl,2-(5-isopropyl-5-methyl-4-oxo-2-imidazolin-2-yl)nicotinic acid]
- IC50 [1]: 3000 to 30000 µM
- change in herbicide sensitivity of AHAS, line XA17 vs control, on a concentration basis ([1]; maize, ahas, line xa17): ≥ 1000 fold
- effect of media supplementation with leucine, isoleucine, valine on growth inhibition [2]: reversed the growth inhibitory effects
- Callus Growth Fold Increase in Tolerance [3]: 30-50 fold
- IC50 (line XA17 tissue): > 30 µg/mL
- tolerance of QJ22 homozygous seedlings compared to control seedlings (QJ22 seedlings): 30 fold
- IC50 [4]: 0.1 to 0.3 µg/mL (≈ 0.346 to 1.04 µM)
- Callus Growth Fold Increase in Tolerance [5]: 100 fold
- effect on AHAS enzyme activity ([6]; AHAS activity from maize cell cultures): inhibited the enzyme activity
- IC50 ([6]; AHAS activity of control tissue, read-out: concentration inhibiting AHAS activity 50%): 1 to 10 µM

Compound: COc1nc(C)nc(NC(=O)NS(=O)(=O)c2ccccc2Cl)n1 [chlorsulfuron, 2-chloro-N-[(4-methoxy-6-methyl-1,3,5-triazin-2-yl)aminocarbonyl]benzenesulfonamide]
- IC50 [1]: 0.3 µM
- IC50 (control seedlings): 0.01 µM
- IC50 ([7]; Zea mays, read-out: concentration inhibiting shoot growth 50%): 0.1 µM
- resistance of XA17 homozygous seedlings [7]: 10 fold
- IC50 (line XA17 tissue): 10 µg/mL (≈ 28 µM)
- tolerance of QJ22 homozygous seedlings compared to control seedlings (QJ22 seedlings): no tolerance
- IC50 [4]: 0.01 µg/mL (≈ 0.028 µM)

Compound: Cc1cc(C)n2nc(S(=O)(=O)Nc3c(Cl)cccc3Cl)nc2n1 [compound 567, 5,7-dimethyl-N-(2,6-dichlorophenyl)-1,2,4-triazolo[1,5-a)pyrimidine-2-sulfonamide]
- IC50 (control seedlings; control seedlings): 0.1 µM
- shoot growth inhibition at the highest concentration tested ([7]; 3×10^-6 M, seedlings homozygous for the resistance trait): no inhibition
- resistance of XA17 homozygous seedlings [7]: at least 30 fold
- IC50 (line XA17 tissue; line XA17, two week growth inhibition study): > 30 µg/mL
- tolerance of QJ22 homozygous seedlings compared to control seedlings (QJ22 seedlings): no tolerance
- IC50 [4]: 0.1 to 0.3 µg/mL (≈ 0.269 to 0.806 µM)

Compound: C[n+]1ccc(-c2cc[n+](C)cc2)cc1 [paraquat]
- increase over wild-type in resistance (Tomato callus lines): ≥ 30 fold
